System: patients with symptomatic oHCM
Assay: SEQUOIA-HCM cardiovascular magnetic resonance (CMR) substudy
Assay type: in vivo, human
From the text: A further exploratory objective of this trial was to evaluate the effect of aficamten on left ventricular mass, function, and structure by cardiac magnetic resonance (CMR) imaging, as determined by changes from baseline to Week 24 in CMR measurements of left ventricular (LV) mass index, LVEF, septal and free wall thickness, left […] volume index, LVESV, and LVEDV. Cardiac Magnetic Resonance. A CMR imaging sub-study assessed the effects of administration of aficamten dosing on cardiac morphology, function, and fibrosis in approximately 40 oHCM patients who were eligible and consented to participate. CMR was performed during screening period and Week 24. […] Effect of Aficamten on Cardiac Structure and Function in Patients with Obstructive Hypertrophic Cardiomyopathy. For some patients with HCM, adverse remodeling of cardiac structure and function occur over time and are associated with increased risk of adverse events, including heart failure, sudden death and atrial fibrillation. Eligible participants enrolled in SEQUOIA-HCM (the study of Example 8), were offered enrolment in the cardiovascular magnetic resonance (CMR) substudy with CMR performed at baseline and at Week 24. Image analysis was performed in a blinded fashion by a core laboratory.

[1] = CMR Cohort N = 57 (Aficamten N = 25), Baseline
[2] = CMR Cohort N = 57 (Aficamten N = 25), Week 24
[3] = CMR Measurements, CMR Cohort N = 57 (Aficamten N = 25), Baseline
[4] = CMR Measurements, CMR Cohort N = 57 (Aficamten N = 25), Week 24
[5] = CMR Measurements, CMR Cohort N = 57, vs placebo
[6] = Echo Measurements, CMR Cohort N = 57 (Aficamten N = 25), Baseline
[7] = Echo Measurements, CMR Cohort N = 57 (Aficamten N = 25), Week 24
[8] = Echo Measurements, CMR Cohort N = 57, vs placebo
[9] = baseline to week 24, vs placebo

With `CCc1nc(-c2ccc3c(c2)CC[C@H]3NC(=O)c2cnn(C)c2)no1` [aficamten, (R)—N-(5-(5-ethyl-1,2,4-oxadiazol-3-yl)-2,3-dihydro-1H-inden-1-yl)-1-methyl-1H-pyrazole-4-carboxamide] the “LGE (% of LV mass) (CMR)” value (Baseline, N = 21) was 2.0 % of LV mass, the “LGE Mass (CMR)” value (Baseline, N = 21) was 3.2 g and the “Mitral Regurgitation Fraction (CMR)” value (Baseline, N = 21) was 24%. The “Mitral Regurgitation Volume (CMR)” value (Baseline, N = 21) was 22 mL, the “NT-proBNP, median” value (Baseline, N = 21) was 708 pg/mL and the “NYHA Class II, patients” value (Baseline, N = 21) was 67%. For the same compound, the “NYHA Class III, patients” value (Baseline, N = 21) was 33%, the “Absolute myocyte mass index (CMR)” value (Baseline, N = 21, mean ± SD) was 84 ± 25 g/m^2 and the “Echo LVOT Gradient at Rest” value (Baseline, N = 21, mean ± SD) was 55 ± 32 mm Hg. The “Echo LVOT Gradient with Valsalva” value (Baseline, N = 21, mean ± SD) was 85 ± 45 mm Hg, the “LA Volume Index (CMR)” value (Baseline, N = 21, mean ± SD) was 68 ± 19 mL/m^2 and the “LV Ejection Fraction (CMR)” value (Baseline, N = 21, mean ± SD) was 77.4 ± 5.6%. The “LV End Diastolic Volume Index (CMR)” value (Baseline, N = 21, mean ± SD) was 67 ± 15 mL/m^2, the “LV End Systolic Volume Index (CMR)” value (Baseline, N = 21, mean ± SD) was 15.3 ± 5.9 mL/m^2 and the “LV Extracellular Volume Fraction (CMR)” value (Baseline, N = 21, mean ± SD) was 26.7 ± 2.7%. For the same compound, the “LV Mass Index (CMR)” value (Baseline, N = 21, mean ± SD) was 113 ± 33 g/m^2, the “LV Maximal Wall Thickness (CMR)” value (Baseline, N = 21, mean ± SD) was 19.3 ± 4.3 mm and the “LV Native T1 (CMR)” value (Baseline, N = 21, mean ± SD) was 1066 ± 121 ms. The “LV extracellular volume mass index (CMR)” value (Baseline, N = 21, mean ± SD) was 31 ± 10 %/g/m^2, the “Peak oxygen consumption, pVO2” value (Baseline, N = 21, mean ± SD) was 20.1 ± 4.4 mL/kg/min and the “NT-proBNP, median” value [1] was 708 pg/mL. For the same compound, the “Peak oxygen consumption, pVO2” value [1] was 19.8 ± 4.7 mL/kg/min, the “Improvement in NYHA by ≥1 FC, n (%)” value [2] was 15 (60.0) n (%) and the “NT-proBNP, median” value [2] was 81 pg/mL. For the same compound, the “Peak oxygen consumption, pVO2” value [2] was 21.0 ± 4.9 mL/kg/min, the “Improvement in NYHA by ≥1 FC, Treatment Effect, OR” value (CMR Cohort N = 57, Week 24, vs placebo) was “OR 3.00” and the “NT-proBNP, Treatment Effect” value (CMR Cohort N = 57, vs placebo) was -85 pg/mL. The “Peak oxygen consumption, pVO2, Treatment Effect” value (CMR Cohort N = 57, vs placebo) was 1.2 mL/kg/min, the “LA Volume Index” value [3] was 68 ± 19 mL/m^2 and the “LV Ejection Fraction” value [3] was 77.4 ± 5.6%. For the same compound, the “LV Mass Index” value [3] was 113 ± 33 g/m^2, the “LV Maximal Wall Thickness” value [3] was 19.3 ± 4.3 mm and the “LA Volume Index” value [4] was 52 ± 14 mL/m^2. The “LV Ejection Fraction” value [4] was 73.8 ± 5.9%, the “LV Mass Index” value [4] was 103 ± 28 g/m^2 and the “LV Maximal Wall Thickness” value [4] was 17.8 ± 4.5 mm. The “LA Volume Index, Treatment Effect” value [5] was −13 mL/m^2, the “LV Ejection Fraction, Treatment Effect” value [5] was −2.6% and the “LV Mass Index, Treatment Effect” value [5] was −15 g/m^2. For the same compound, the “LV Maximal Wall Thickness, Treatment Effect” value [5] was −2.1 mm, the “NT-proBNP, change relative to placebo” value (CMR substudy patients, Week 24) was −85% and the “echocardiographic Valsalva LVOT-G, Δ least squares mean relative to placebo” value (CMR substudy patients, Week 24) was −50 mm Hg. For the same compound, the “echocardiographic resting LVOT-G, Δ least squares mean relative to placebo” value (CMR substudy patients, Week 24) was −46 mm Hg, the “LA Volume Index” value [6] was 40 ± 11 mL/m^2 and the “LV Ejection Fraction” value [6] was 74.3 ± 4.7%. The “LV Mass Index” value [6] was 126 ± 22 g/m2, the “LV Maximal Wall Thickness” value [6] was 20.6 ± 2.7 mm and the “LVOT gradient at rest” value [6] was 55 ± 30 mmHg. The “LVOT gradient with Valsalva” value [6] was 84 ± 42 mmHg, the “LA Volume Index” value [7] was 39 ± 10 mL/m^2 and the “LV Ejection Fraction” value [7] was 68.2 ± 7.8%. The “LV Maximal Wall Thickness” value [7] was 18.7 ± 3.1 mm, the “LVOT gradient at rest” value [7] was 25 ± 25 mmHg and the “LVOT gradient with Valsalva” value [7] was 38 ± 30 mmHg. For the same compound, the “LA Volume Index, Treatment Effect” value [8] was −1 mL/m^2, the “LV Ejection Fraction, Treatment Effect” value [8] was −3.6% and the “LV Mass Index, Treatment Effect” value [8] was −10 g/m2. For the same compound, the “LV Maximal Wall Thickness, Treatment Effect” value [8] was −1.5 mm, the “LVOT gradient at rest, Treatment Effect” value [8] was −38 mmHg and the “LVOT gradient with Valsalva, Treatment Effect” value [8] was −47 mmHg. For the same compound, the “CMR LV end-diastolic and end-systolic volumes” value (Week 24) was “no significant change”, the “CMR LV mass index, Δ least squares mean relative to placebo” value (Week 24) was −15 g/m^2 and the “CMR left atrial volume index, Δ least squares mean relative to placebo” value (Week 24) was −13 mL/m^2. For the same compound, the “CMR maximal LV wall thickness, Δ least squares mean relative to placebo” value (Week 24) was −2.1 mm, the “CMR native Tl relaxation time, Δ least squares mean relative to placebo” value (Week 24) was -37 ms and the “LV extracellular volume fraction [ECV]” value (Week 24) was 0.7%. For the same compound, the “LV replacement fibrosis, late gadolinium enhancement [LGE] mass” value (Week 24) was -0.7 g, the “LGE (% of LV mass) (CMR)” value (Week 24, N = 21) was 1.4 % of LV mass and the “LGE Mass (CMR)” value (Week 24, N = 21) was 1.5 g. For the same compound, the “Mitral Regurgitation Fraction (CMR)” value (Week 24, N = 21) was 13%, the “Mitral Regurgitation Volume (CMR)” value (Week 24, N = 21) was 12 mL and the “NT-proBNP, median” value (Week 24, N = 21) was 79 pg/mL. For the same compound, the “NYHA Class I, patients” value (Week 24, N = 21) was 57%, the “NYHA Class II, patients” value (Week 24, N = 21) was 29% and the “NYHA Class III, patients” value (Week 24, N = 21) was 14%. For the same compound, the “Absolute myocyte mass index (CMR)” value (Week 24, N = 21, mean ± SD) was 75 ± 22 g/m^2, the “Echo LVOT Gradient at Rest” value (Week 24, N = 21, mean ± SD) was 21 ± 18 mm Hg and the “Echo LVOT Gradient with Valsalva” value (Week 24, N = 21, mean ± SD) was 35 ± 26 mm Hg. The “LA Volume Index (CMR)” value (Week 24, N = 21, mean ± SD) was 52 ± 14 mL/m^2, the “LV Ejection Fraction (CMR)” value (Week 24, N = 21, mean ± SD) was 73.8 ± 5.9% and the “LV End Diastolic Volume Index (CMR)” value (Week 24, N = 21, mean ± SD) was 60 ± 11 mL/m^2. The “LV End Systolic Volume Index (CMR)” value (Week 24, N = 21, mean ± SD) was 16.0 ± 5.1 mL/m^2, the “LV Extracellular Volume Fraction (CMR)” value (Week 24, N = 21, mean ± SD) was 27.4 ± 7.1% and the “LV Mass Index (CMR)” value (Week 24, N = 21, mean ± SD) was 103 ± 28 g/m^2. The “LV Maximal Wall Thickness (CMR)” value (Week 24, N = 21, mean ± SD) was 17.8 ± 4.5 mm, the “LV Native T1 (CMR)” value (Week 24, N = 21, mean ± SD) was 1021 ± 93 ms and the “LV extracellular volume mass index (CMR)” value (Week 24, N = 21, mean ± SD) was 29 ± 12 %/g/m^2. The “Peak oxygen consumption, pVO2” value (Week 24, N = 21, mean ± SD) was 21.1 ± 4.7 mL/kg/min, the “Absolute myocyte mass index (CMR), Treatment Effect (95% CI)” value [9] was −14 (−23, −4) g/m^2 and the “Echo LVOT Gradient at Rest, Treatment Effect” value [9] was −46 mm Hg. For the same compound, the “Echo LVOT Gradient with Valsalva, Treatment Effect” value [9] was −50 mm Hg, the “LA Volume Index (CMR), Treatment Effect” value [9] was −13 mL/m^2 and the “LGE (% of LV mass) (CMR), Treatment Effect (95% CI)” value [9] was −0.4 (−2.1, 1.2) % of LV mass. For the same compound, the “LGE Mass (CMR), Treatment Effect (95% CI)” value [9] was −0.7 (−2.9, 1.6) g, the “LV Ejection Fraction (CMR), Treatment Effect” value [9] was −2.6% and the “LV End Diastolic Volume Index (CMR), Treatment Effect” value [9] was −1 mL/m^2. For the same compound, the “LV End Systolic Volume Index (CMR), Treatment Effect” value [9] was 1.4 mL/m^2, the “LV Extracellular Volume Fraction (CMR), Treatment Effect (95% CI)” value [9] was 0.7 (−2.2, 3.6) % and the “LV Mass Index (CMR), Treatment Effect” value [9] was −15 g/m^2. The “LV Maximal Wall Thickness (CMR), Treatment Effect” value [9] was −2.1 mm, the “LV Native T1 (CMR), Treatment Effect (95% CI)” value [9] was −37 (−69, −5) ms and the “LV extracellular volume mass index (CMR), Treatment Effect” value [9] was −3.9 %/g/m^2. For the same compound, the “Mitral Regurgitation Fraction (CMR), Treatment Effect” value [9] was −6%, the “Mitral Regurgitation Volume (CMR), Treatment Effect” value [9] was -7 mL and the “NT-proBNP, Treatment Effect” value [9] was −85%. The “Peak oxygen consumption, pVO2, Treatment Effect” value [9] was 1.0 mL/kg/min and the “Treatment Effect ≥1 NYHA Class Improvement” value [9] was 36%.

Source: patent US20250295639A1, “METHODS FOR TREATING HEART DISEASES” (Cytokinetics, Incorporated, priority 2024, published 2025)
